US20240246916A1, “7-NITRO-8-HYDROXYQUINOLINE DERIVATIVES, PREPARATION METHOD THEREFORE AND MEDICAL USE THEREOF” (Jiangsu Yahong Meditech Co., Ltd., priority 2021, published 2024)
Converted amounts (≈) assume the structure as drawn.

Assays:
Format in all cases: cell-based
[1] = system: Acinetobacter baumannii (carbapenem-resistant clinical isolates; ATCC19606); assay: MIC by micro broth dilution (CLSI), Acinetobacter baumannii; conditions: Acinetobacter baumannii; for MIC50 / MIC90: ATCC19606, Clinical strain; for MIC50: read-out: MIC50; for MIC90: read-out: MIC90; for MIC: Standard strain ATCC19606, read-out: MIC
Excerpt: (§1) The test bacteria were one strain of clinically isolated carbapenem-resistant Escherichia coli, two strains of carbapenem-resistant Acinetobacter baumannii, two strains of methicillin-resistant Staphylococcus aureus, two strains of sensitive Staphylococcus aureus, and 7 strains of Klebsiella pneumoniae. Duplicate strains isolated from the same patient were eliminated. There were also […] quality control strains Escherichia coli ATCC25922, Acinetobacter baumannii ATCC19606, Staphylococcus aureus ATCC29213, Klebsiella pneumoniae ATCC BAA-1705, ATCC 43816, ATCC BAA-2472, ATCC-BAA-1898, ATCC-BAA-1899, NCTC 13440 and ATCC-BAA-2470. There were 24 strains in total.
(§2) According to the recommendations of relevant documents of the American Clinical and Laboratory Standards Institute (CLSI), the micro broth dilution method was used to determine the MIC of the compounds of the present invention against clinically isolated strains. • 3.1 Formulation of antibacterial drug: All the compounds of the present invention were dissolved in DMSO. The drug concentration range was 128 mg/L to 0.06 mg/L. • 3.2 Culture medium: The drug susceptibility test used cation adjusted Mueller-Hinton broth (CAMHB). • 3.3 Amount of inoculum: The test bacteria cultured overnight were adjusted to 0.5 McFarland turbidity by the direct colony suspension method, and diluted 100 folds, the final inoculum amount was 10^5 CFU/mL. • 3.4 Culture conditions: The test bacteria were cultured at 35±2° C. for 20 hours in air.
(§3) The drug susceptibility test results were interpretated by reference to CLSI 2019 M100 29th edition criteria.
(§4) The quality control strains of the drug susceptibility test were Escherichia coli ATCC 25922, Acinetobacter baumannii ATCC 19606, Staphylococcus aureus ATCC 29213, Klebsiella pneumoniae ATCC BAA-1705, ATCC 43816, ATCC BAA-2472, ATCC-BAA-1898, ATCC-BAA-1899, NCTC 13440 and ATCC-BAA-2470.
(§5) The results of drug susceptibility test were statistically analyzed by WHONET software (version 5.6).

[2] = system: Staphylococcus aureus (methicillin-resistant and sensitive clinical isolates; ATCC29213); assay: MIC by micro broth dilution (CLSI), Staphylococcus aureus; conditions: for MIC50 / MIC90: Clinical strain; for MIC50: read-out: MIC50; for MIC90: read-out: MIC90; for MIC: Standard strain ATCC29213, read-out: MIC
Excerpt: as §1, §2, §3, §4, §5

[3] = system: Escherichia coli (carbapenem-resistant clinical isolate; ATCC25922); assay: MIC by micro broth dilution (CLSI), Escherichia coli; conditions: Escherichia coli; for MIC50 / MIC90: ATCC25922, Clinical strain; for MIC50: read-out: MIC50; for MIC90: read-out: MIC90; for MIC: Standard strain ATCC25922, read-out: MIC
Excerpt: as §1, §2, §3, §4, §5

| SMILES | MIC50 [1] [µg/mL] | MIC90 [1] [µg/mL] | MIC [1] [µg/mL] | MIC50 [2] [µg/mL] | MIC90 [2] [µg/mL] | MIC [2] [µg/mL] | MIC50 [3] [µg/mL] | MIC90 [3] [µg/mL] | MIC [3] [µg/mL] |
| --- | --- | --- | --- | --- | --- | --- | --- | --- | --- |
| Cc1cc([N+](=O)[O-])c(O)c2ncccc12 [Example 4, 5-Methyl-7-nitroquinolin-8-ol] | 32 (≈ 157 µM) | 32 (≈ 157 µM) |  |  |  |  |  |  |  |
| O=[N+]([O-])c1c(F)c(Cl)c2cccnc2c1O [Example 110, 5-chloro-6-fluoro-7-nitroquinolin-8-ol] | 8 (≈ 33 µM) | 8 (≈ 33 µM) | 8 (≈ 33 µM) | 2 (≈ 8.24 µM) | 2 (≈ 8.24 µM) | 4 (≈ 16.5 µM) | 16 (≈ 66 µM) | 64 (≈ 264 µM) | 8 (≈ 33 µM) |
| O=[N+]([O-])c1ccc2c(Cl)c(-c3ccccc3)cnc2c1O [Example 82, 4-chloro-7-nitro-3-phenylquinolin-8-ol] | > 128 | > 128 | 128 (≈ 426 µM) | 1 (≈ 3.33 µM) | 1 (≈ 3.33 µM) | 1 (≈ 3.33 µM) | > 128 | > 128 | > 128 |
| O=[N+]([O-])c1cc(Cl)c2cc(CN3CCOCC3)cnc2c1O [Example 96, 5-chloro-3-(morpholinomethyl)-7-nitroquinolin-8-ol] | > 128 | > 128 | > 128 | 32 (≈ 98.8 µM) | 64 (≈ 198 µM) | 32 (≈ 98.8 µM) | > 128 | > 128 | > 128 |
| Cc1c([N+](=O)[O-])c(O)c2ncccc2c1Cl [Example 107, 5-chloro-6-methyl-7-nitroquinolin-8-ol] |  |  |  | 4 (≈ 16.8 µM) | 8 (≈ 33.5 µM) | 8 (≈ 33.5 µM) | 64 (≈ 268 µM) | 128 (≈ 536 µM) | 32 (≈ 134 µM) |
| O=C1CN(Cc2cnc3c(O)c([N+](=O)[O-])ccc3c2)CCN1 [Example 100, 4-((8-hydroxy-7-nitroquinolin-3-yl)methyl)piperazin-2-one] | > 128 | > 128 | > 128 | > 128 | > 128 | > 128 | > 128 | > 128 | > 128 |
| Cl.Cl.Cl.O=[N+]([O-])c1ccc2cc(CN3CCNCC3)cnc2c1O [Example 102, 7-nitro-3-(piperazin-1-ylmethyl)quinolin-8-ol trihydrochloride] | > 128 | > 128 | > 128 | > 128 | > 128 | > 128 | > 128 | > 128 | 128 |
| CCOC(=O)c1cnc2c(O)c([N+](=O)[O-])ccc2c1 [Example 88, ethyl 8-hydroxy-7-nitroquinoline-3-carboxylate] | > 128 | > 128 | 128 (≈ 488 µM) | 4 (≈ 15.3 µM) | 16 (≈ 61 µM) | 16 (≈ 61 µM) | > 128 | > 128 | > 128 |
| Cl.Cl.Cl.O=[N+]([O-])c1cc(CN2CCNCC2)c2cccnc2c1O [Example 101, 7-nitro-5-(piperazin-1-ylmethyl)quinolin-8-ol trihydrochloride] | > 128 | > 128 | > 128 | > 128 | > 128 | > 128 | > 128 | > 128 | > 128 |
| CNCc1cc([N+](=O)[O-])c(O)c2ncccc12.Cl.Cl [Example 99, 5-((methylamino)methyl)-7-nitroquinolin-8-ol dihydrochloride] | > 128 | > 128 | 128 | > 128 | > 128 | > 128 | > 128 | > 128 | > 128 |
| CCN(CC)Cc1cnc2c(O)c([N+](=O)[O-])ccc2c1 [Example 98, 3-((diethylamino)methyl)-7-nitroquinolin-8-ol] | 64 (≈ 232 µM) | 128 (≈ 465 µM) | 64 (≈ 232 µM) | 32 (≈ 116 µM) | 64 (≈ 232 µM) | 64 (≈ 232 µM) | 128 (≈ 465 µM) | 128 (≈ 465 µM) | 64 (≈ 232 µM) |
| O=[N+]([O-])c1cc(CN2CCCCC2)c2cccnc2c1O [Example 91, 7-nitro-5-(piperidin-1-ylmethyl)quinolin-8-ol acetate] | > 128 | > 128 | 128 | > 128 | > 128 | > 128 | > 128 | > 128 | 128 |
| CCNCc1cc([N+](=O)[O-])c(O)c2ncccc12.Cl.Cl [Example 103, 5-((ethylamino)methyl)-7-nitroquinolin-8-ol dihydrochloride] | > 128 | > 128 | > 128 | > 128 | > 128 | > 128 | > 128 | > 128 | > 128 |
| CCN(CC)Cc1cc([N+](=O)[O-])c(O)c2ncccc12 [Example 94, 5-((diethylamino)methyl)-7-nitroquinolin-8-ol] | 64 (≈ 232 µM) | > 128 | 128 (≈ 465 µM) | > 128 | > 128 | > 128 | 128 (≈ 465 µM) | 128 (≈ 465 µM) | 64 (≈ 232 µM) |
| O=[N+]([O-])c1cc(CN2CCOCC2)c2cccnc2c1O [Example 87, 5-(morpholinomethyl)-7-nitroquinolin-8-ol acetate] | > 128 | > 128 | 128 | 128 | > 128 | 128 | > 128 | > 128 | 128 |
| O=[N+]([O-])c1c(Br)c(Cl)c2cccnc2c1O [Example 114, 6-bromo-5-chloro-7-nitroquinolin-8-ol] | 4 (≈ 13.2 µM) | 8 (≈ 26.4 µM) | 8 (≈ 26.4 µM) | 2 (≈ 6.59 µM) | 2 (≈ 6.59 µM) | 2 (≈ 6.59 µM) | 64 (≈ 211 µM) | 64 (≈ 211 µM) | 16 (≈ 52.7 µM) |
| O=[N+]([O-])c1ccc2cc(C3CC3)cnc2c1O [Example 112, 3-cyclopropyl-7-nitroquinolin-8-ol] | 8 (≈ 34.7 µM) | 32 (≈ 139 µM) | 32 (≈ 139 µM) | 2 (≈ 8.69 µM) | 4 (≈ 17.4 µM) | 4 (≈ 17.4 µM) | 64 (≈ 278 µM) | 128 (≈ 556 µM) | 32 (≈ 139 µM) |
| O=[N+]([O-])c1cc(F)c2cccnc2c1O [Example 106, 5-fluoro-7-nitroquinolin-8-ol] |  |  |  | 16 (≈ 76.9 µM) | 16 (≈ 76.9 µM) | 16 (≈ 76.9 µM) | 8 (≈ 38.4 µM) | 128 (≈ 615 µM) | 16 (≈ 76.9 µM) |
| O=C(O)C(F)(F)F.O=[N+]([O-])c1cc(C(F)F)c2cccnc2c1O [Example 108, 5-(difluoromethyl)-7-nitroquinolin-8-ol trifluoroacetate] |  |  |  | > 128 | > 128 | 128 | > 128 | > 128 | > 128 |
| O=[N+]([O-])c1ccc2c(C3CCNCC3)ccnc2c1O [Example 105, 7-nitro-4-(piperidin-4-yl)quinolin-8-ol] |  |  |  | 128 (≈ 468 µM) | 128 (≈ 468 µM) | 128 (≈ 468 µM) | 128 (≈ 468 µM) | > 128 | 128 (≈ 468 µM) |
| O=[N+]([O-])c1cc(CO)c2cccnc2c1O [Example 109, 5-(hydroxymethyl)-7-nitroquinolin-8-ol] |  |  |  | 128 (≈ 581 µM) | 128 (≈ 581 µM) | 64 (≈ 291 µM) | 32 (≈ 145 µM) | 64 (≈ 291 µM) | 64 (≈ 291 µM) |
